One block for each compound: values may come before it. Active and inactive are the calls of the source. The calls are words filed in the database; no cut-off is given here.
Legend:
HeLa [1] = experiment: Antiproliferative activity against human HeLa cells measured after 48 hrs by MTT assay; assay type: functional, cell-based
A549 = experiment: Antiproliferative activity against human A549 cells measured after 48 hrs by MTT assay; assay type: functional, cell-based; conditions: A549, 48 h
MCF7 = experiment: Antiproliferative activity against human MCF7 cells measured after 48 hrs by MTT assay; assay type: functional, cell-based; conditions: MCF7, 48 h
Sus scrofa = species on record: Sus scrofa; experiment: Inhibition of pig brain tubulin polymerization at 10 uM measured at 1 min interval for 20 mins by spectrophotometric method relative to control
[2] = Inhibition of pig brain tubulin polymerization measured at 1 min interval for 20 mins by spectrophotometric method; set-up: species or system Sus scrofa
T47D = experiment: Antiproliferative activity against human T47D cells measured after 48 hrs by MTT assay; assay type: functional, cell-based
HEK293 = experiment: Cytotoxicity against HEK293 cells measured after 48 hrs by MTT assay; assay type: cell-based; conditions: Homo sapiens, HEK293, 48 h
HeLa [3] = experiment: Induction of apoptosis in human HeLa cells assessed as necrotic cells at 24 nM measured after 24 hrs by Annexin V-FITC/propidium iodide staining based flow cytometry (reference value: 0.048%); assay type: functional
HeLa [4] = experiment: Cell cycle arrest in human HeLa cells assessed as accumulation at G0/G1 phase at 12 nM measured after 24 hrs by propidium iodide staining based flow cytometry (reference value: 69.08%); assay type: functional
HeLa [5] = experiment: Induction of apoptosis in human HeLa cells assessed as early apoptotic cells at 12 nM measured after 24 hrs by Annexin V-FITC/propidium iodide staining based flow cytometry (reference value: 3.97%); assay type: functional
HeLa [6] = experiment: Induction of microtubule disruption in human HeLa cells at 12 nM measured after 6 hrs by DAPI staining based immunofluorescence microscopy; assay type: cell-based
HeLa [7] = experiment: Cell cycle arrest in human HeLa cells assessed as accumulation at G0/G1 phase at 48 nM measured after 24 hrs by propidium iodide staining based flow cytometry (reference value: 69.08%); assay type: functional
HeLa [8] = experiment: Cell cycle arrest in human HeLa cells assessed as accumulation at G2M phase at 12 nM measured after 24 hrs by propidium iodide staining based flow cytometry (reference value: 11.14%); assay type: functional
HeLa [9] = experiment: Cell cycle arrest in human HeLa cells assessed as decrease in cdc2 expression measured after 24 hrs by Western blot analysis; assay type: functional, cell-based
HeLa [10] = experiment: Induction of apoptosis in human HeLa cells assessed as necrotic cells at 48 nM measured after 24 hrs by Annexin V-FITC/propidium iodide staining based flow cytometry (reference value: 0.048%); assay type: functional
HeLa [11] = experiment: Induction of apoptosis in human HeLa cells assessed as late apoptotic cells at 24 nM measured after 24 hrs by Annexin V-FITC/propidium iodide staining based flow cytometry (reference value: 2.34%); assay type: functional
HeLa [12] = experiment: Induction of apoptosis in human HeLa cells assessed as viable cells at 48 nM measured after 24 hrs by Annexin V-FITC/propidium iodide staining based flow cytometry (reference value: 93.6%); assay type: functional; conditions: read-out: Activity
HeLa [13] = experiment: Induction of apoptosis in human HeLa cells assessed as necrotic cells at 12 nM measured after 24 hrs by Annexin V-FITC/propidium iodide staining based flow cytometry (reference value: 0.048%); assay type: functional
HeLa [14] = experiment: Cell cycle arrest in human HeLa cells assessed as accumulation at G0/G1 phase at 24 nM measured after 24 hrs by propidium iodide staining based flow cytometry (reference value: 69.08%); assay type: functional
HeLa [15] = experiment: Induction of apoptosis in human HeLa cells assessed as viable cells at 24 nM measured after 24 hrs by Annexin V-FITC/propidium iodide staining based flow cytometry (reference value: 93.6%); assay type: functional; conditions: read-out: Activity
HeLa [16] = experiment: Cell cycle arrest in human HeLa cells assessed as accumulation at S phase at 12 nM measured after 24 hrs by propidium iodide staining based flow cytometry (reference value: 19.78%); assay type: functional
HeLa [17] = experiment: Induction of apoptosis in human HeLa cells assessed as late apoptotic cells at 48 nM measured after 24 hrs by Annexin V-FITC/propidium iodide staining based flow cytometry (reference value: 2.34%); assay type: functional
HeLa [18] = experiment: Cell cycle arrest in human HeLa cells assessed as accumulation at G2M phase at 24 nM measured after 24 hrs by propidium iodide staining based flow cytometry (reference value: 11.14%); assay type: functional
HeLa [19] = experiment: Induction of apoptosis in human HeLa cells assessed as viable cells at 12 nM measured after 24 hrs by Annexin V-FITC/propidium iodide staining based flow cytometry (reference value: 93.6%); assay type: functional; conditions: read-out: Activity
HeLa [20] = experiment: Induction of apoptosis in human HeLa cells assessed as increase in PARP cleavage measured after 24 hrs by Western blot analysis; assay type: functional, cell-based
HeLa [21] = experiment: Induction of apoptosis in human HeLa cells assessed as late apoptotic cells at 12 nM measured after 24 hrs by Annexin V-FITC/propidium iodide staining based flow cytometry (reference value: 2.34%); assay type: functional
HeLa [22] = experiment: Induction of apoptosis in human HeLa cells assessed as down regulation of Bcl-2 expression at 12 to 48 nM measured after 24 hrs by Western blot analysis; assay type: functional, cell-based; conditions: dose 12-48 nM
HeLa [23] = experiment: Cell cycle arrest in human HeLa cells assessed as decrease in cyclin B1 expression measured after 24 hrs by Western blot analysis; assay type: functional, cell-based
HeLa [24] = experiment: Induction of apoptosis in human HeLa cells assessed as early apoptotic cells at 24 nM measured after 24 hrs by Annexin V-FITC/propidium iodide staining based flow cytometry (reference value: 3.97%); assay type: functional
HeLa [25] = experiment: Cell cycle arrest in human HeLa cells assessed as accumulation at G2M phase at 48 nM measured after 24 hrs by propidium iodide staining based flow cytometry (reference value: 11.14%); assay type: functional
HeLa [26] = experiment: Cell cycle arrest in human HeLa cells assessed as accumulation at S phase at 48 nM measured after 24 hrs by propidium iodide staining based flow cytometry (reference value: 19.78%); assay type: functional
HeLa [27] = experiment: Induction of apoptosis in human HeLa cells assessed as early apoptotic cells at 48 nM measured after 24 hrs by Annexin V-FITC/propidium iodide staining based flow cytometry (reference value: 3.97%); assay type: functional
HeLa [28] = experiment: Cell cycle arrest in human HeLa cells assessed as accumulation at S phase at 24 nM measured after 24 hrs by propidium iodide staining based flow cytometry (reference value: 19.78%); assay type: functional
HeLa [29] = experiment: Induction of apoptosis in human HeLa cells measured after 24 hrs by Annexin V-FITC/propidium iodide staining based flow cytometry; assay type: functional, cell-based
HeLa [30] = experiment: Cell cycle arrest in human HeLa cells assessed as increase in accumulation at G2M phase measured after 24 hrs by propidium iodide staining based flow cytometry; assay type: functional

IC50 (HeLa [1]): > 25 µM
Compound: COc1cc(-c2nnc3ccc(-c4ccc5ccccc5c4)cn23)cc(OC)c1OC

IC50 (HeLa [1]): > 25 µM
Compound: COc1ccc(-c2nnc3ccc(-c4cc(OC)c(OC)c(OC)c4)cn23)cc1[N+](=O)[O-]

IC50 (HeLa [1]): 0.119 µM
IC50 (A549): 87.1 µM
IC50 (MCF7): > 100 µM
inhibition (Sus scrofa): 68%
IC50 [2]: 11.3 µM
IC50 (T47D): > 100 µM
Compound: COc1ccc(-c2ccc3nnc(-c4cc(OC)c(OC)c(OC)c4)n3c2)cc1OC

IC50 (HeLa [1]): 20.6 µM
Compound: COc1cc(-c2nnc3ccc(-c4cccnc4OC)cn23)cc(OC)c1OC

IC50 (HeLa [1]): 0.75 µM
Compound: COc1cc(C2=NC3=NC(C)=C(C(C)=O)C(c4ccc([N+](=O)[O-])cc4)N3N2)cc(OC)c1OC (configuration not stated)
IC50 (HEK293): 29.9 µM

IC50 (HeLa [1]): 0.446 µM
Compound: COc1cccc(-c2ccc3nnc(-c4cc(OC)c(OC)c(OC)c4)n3c2)c1

IC50 (HeLa [1]): > 25 µM
Compound: COc1cc(-c2ccc3nnc(-c4ccc(Cl)c(Cl)c4)n3c2)cc(OC)c1OC

IC50 (HeLa [1]): 0.062 µM
IC50 (A549): 58.7 µM
IC50 (MCF7): 75.7 µM
inhibition (Sus scrofa): 36%
IC50 (T47D): > 100 µM
Compound: COc1ccc(-c2ccc3nnc(-c4cc(OC)c(OC)c(OC)c4)n3c2)cc1[N+](=O)[O-]
IC50 (HEK293): > 100 µM

IC50 (HeLa [1]): 0.023 µM
Compound: COc1cc(-c2nnc3ccc(-c4ccc([N+](=O)[O-])cc4)cn23)cc(OC)c1OC
IC50 (HEK293): > 100 µM

IC50 (HeLa [1]): 0.025 µM
IC50 (A549): 78.6 µM
IC50 (MCF7): > 100 µM
inhibition (Sus scrofa): 18%
IC50 (T47D): 76 µM
Compound: COc1cc(-c2nnc3ccc(-c4ccc(F)cc4)cn23)cc(OC)c1OC
IC50 (HEK293): > 100 µM

IC50 (HeLa [1]): 7.9 µM
Compound: COc1ccc(-c2ccc3nnc(-c4cc(OC)c(OC)c(OC)c4)n3c2)c(OC)c1

IC50 (HeLa [1]): > 25 µM
Compound: COc1cc(-c2nnc3ccc(-c4ccc(C(F)(F)F)cc4)cn23)cc(OC)c1OC

IC50 (HeLa [1]): > 25 µM
Compound: COc1cc(-c2ccc3nnc(-c4ccc(Cl)cc4)n3c2)cc(OC)c1OC

IC50 (HeLa [1]): 0.012 µM
IC50 (A549): 10.4 µM
IC50 (MCF7): 40.4 µM
inhibition (Sus scrofa): 81%
IC50 [2]: 3.4 µM
IC50 (T47D): 27.9 µM
Compound: COc1ccc(-c2ccc3nnc(-c4cc(OC)c(OC)c(OC)c4)n3c2)cc1N
Activity (HeLa [3]): 0.373%
Activity (HeLa [4]): 64.07%
Activity (HeLa [5]): 5.21%
Activity (HeLa [6]): Active
Activity (HeLa [7]): 2.13%
Activity (HeLa [8]): 13.9%
Activity (HeLa [9]): Dose-dependent effect
Activity (HeLa [10]): 0.922%
Activity (HeLa [11]): 7.97%
viability at 0.048 µM (HeLa [12]): 45.8%
Activity (HeLa [13]): 0.139%
Activity (HeLa [14]): 51.59%
IC50 (HEK293): > 100 µM
viability at 0.024 µM (HeLa [15]): 72.8%
Activity (HeLa [16]): 22.03%
Activity (HeLa [17]): 16.9%
Activity (HeLa [18]): 26%
viability at 0.012 µM (HeLa [19]): 91.4%
Activity (HeLa [20]): Dose-dependent effect
Activity (HeLa [21]): 3.23%
Activity (HeLa [22]): Active
Activity (HeLa [23]): Dose-dependent effect
Activity (HeLa [24]): 18.9%
Activity (HeLa [25]): 92.65%
Activity (HeLa [26]): 5.22%
Activity (HeLa [27]): 36.4%
Activity (HeLa [28]): 22.41%
Activity (HeLa [29]): Dose-dependent effect
Activity (HeLa [30]): Dose-dependent effect

IC50 (HeLa [1]): > 25 µM
Compound: COc1ccc(-c2ccc3nnc(-c4cc(OC)c(OC)c(OC)c4)n3c2)c(O)c1

IC50 (HeLa [1]): 22.2 µM
Compound: COc1cc(-c2nnc3ccc(-c4ccccc4OC(F)(F)F)cn23)cc(OC)c1OC
